*1 amine or outer side, *2 acyl side, *3 side chain or, on linkers, in order; H or OH if unused. Where a SMILES comes first, the peptide text is derived from it. Bridges are numbered along the chain shown (N, C = ends). [ ]: non-standard residue; d: D form. The star is where a group is joined. Ala(piperidin-4-yl) = O=C([C@H](CC1CCN([*:3])CC1)N[*:1])[*:2]; DOTA = O=C(O)CN1CCN(CC(=O)O)CCN(CC(=O)*)CCN(CC(=O)O)CC1; 2Nal = N[C@@H](Cc1ccc2ccccc2c1)C(=O)O; NMeNle = CCCC[C@H](NC)C(=O)O; Tle = CC(C)(C)[C@H](N)C(=O)O
T1: DLL3 (Homo sapiens, UniProt Q9NYJ7)
T1 sequence (Q9NYJ7 27-618): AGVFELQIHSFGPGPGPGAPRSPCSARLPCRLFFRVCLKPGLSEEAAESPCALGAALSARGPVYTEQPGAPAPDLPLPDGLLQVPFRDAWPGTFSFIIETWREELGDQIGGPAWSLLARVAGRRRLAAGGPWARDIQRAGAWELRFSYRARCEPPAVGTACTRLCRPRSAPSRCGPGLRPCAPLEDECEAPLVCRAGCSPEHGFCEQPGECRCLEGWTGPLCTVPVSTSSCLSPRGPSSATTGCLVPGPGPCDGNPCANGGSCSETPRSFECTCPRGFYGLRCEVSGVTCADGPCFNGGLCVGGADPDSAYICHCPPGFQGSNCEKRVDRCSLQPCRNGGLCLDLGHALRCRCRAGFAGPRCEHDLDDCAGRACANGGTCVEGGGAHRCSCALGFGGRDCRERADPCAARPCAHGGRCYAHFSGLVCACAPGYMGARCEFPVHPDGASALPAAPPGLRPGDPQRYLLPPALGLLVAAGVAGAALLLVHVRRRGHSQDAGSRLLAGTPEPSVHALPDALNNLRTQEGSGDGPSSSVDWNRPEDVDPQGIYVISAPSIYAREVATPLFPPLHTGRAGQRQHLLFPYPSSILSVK

T2: DLL3 (target ligand immobilized on a SA sensor chip via streptavidin capture) (Homo sapiens (Human), UniProt Q9NYJ7 27-492, limits assumed)
T2 sequence: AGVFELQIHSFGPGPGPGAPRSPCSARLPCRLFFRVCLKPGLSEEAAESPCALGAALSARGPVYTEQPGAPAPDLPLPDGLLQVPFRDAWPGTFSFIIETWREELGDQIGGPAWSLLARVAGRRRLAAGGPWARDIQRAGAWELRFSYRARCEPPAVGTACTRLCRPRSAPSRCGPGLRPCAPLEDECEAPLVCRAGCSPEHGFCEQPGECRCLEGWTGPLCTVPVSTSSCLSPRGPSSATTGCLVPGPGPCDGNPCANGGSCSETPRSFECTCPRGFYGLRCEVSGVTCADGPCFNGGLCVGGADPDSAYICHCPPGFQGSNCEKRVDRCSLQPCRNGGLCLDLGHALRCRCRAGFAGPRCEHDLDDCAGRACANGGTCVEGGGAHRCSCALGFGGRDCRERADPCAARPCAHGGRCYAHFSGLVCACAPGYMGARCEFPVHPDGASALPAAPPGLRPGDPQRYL


Tests used:
CT26.DLL3 cells [1] = assay: Cell binding (total uptake) of [177Lu]Lu-labeled peptide, CT26.DLL3 cells; format: cell-based; conditions: 1 h, 37° C.
Method: (§1) [^177Lu]LuCl3 was received from venders in HCl solution. For every mCi of [^177Lu]LuCl3 added to the reaction vial (1.5 mL Eppendorf vial), ammonium acetate buffer (0.2 M, pH 4.9, 100 μL, containing 1% w/v ascorbic acid and 6% v/v ethanol) and peptide conjugate (1 nmol; also referred to herein as “chelator-peptides”) was added. The pH of the solution was determined to be approximately 5 by using pH strips. The reaction vial was incubated at 80° C., 700 RPM for 17-20 minutes. A sample from the reaction was analyzed by RP-HPLC using an Agilent Infinity II 1260 HPLC to determine reaction completion and radiochemical purity of [^177Lu]Lu-chelator-peptides. HPLC conditions: Waters XBridge BEH C18 Column, 130A, 3.5 μm, 4.6 mm×250 mm; mobile phase: Solvent A=water (with 0.1% formic acid), solvent B=acetonitrile (with 0.1% formic acid). Gradients: 25-45% B in 10 minutes, 45-65% B in 12 minutes, 65-90% in 6 minutes at a flow rate of 0.5 mL/minutes Required amounts of the product was formulated in 1% PBSA for cell studies.
(§2) The study was conducted using SHP-77, CT26.WT, CT26.DLL3, and HEK293.DLL3 cells (Table 9)
(§3) Adherent cell studies: The cells were cultured in appropriate culture media (20 mL) in tissue culture treated T150 flasks at 37° C. and 5% C02. Adherent cells were detached (60-70% confluent) using 5 mL Versene at 37° C. for 3 minutes. After confirming the viability using countess and count of detached cells using Trypan blue, the cells were centrifuged at 4° C. for 5 minutes (1,000 rpm). The cell pellet obtained was washed once with PBS and resuspended in 1% PBSA to obtain the desired cell concentration (5-25 million cells/mL).
(§4) Cell numbers used for the assay were in the range of 5 million cells/condition-25 million cells/condition.
Total uptake: Cells were incubated with 300 μL (0.8 μCi) of the incubation buffer (containing radiolabeled peptide [^177Lu]Lu-test peptide) for 1 hour at 37° C. (Table 10). Post incubation, the cells were pelleted and washed 2 times using cold PBS+1% BSA. The supernatant and washes were combined and counted together as “unbound fraction” in a gamma counter. The cells were then resuspended in 300 μL of 1% PBS+1% BSA and counted in the gamma counter as “bound fraction”.
(§5) In these Tables, “A” represents % s ≤25; “B” represents 25 <% ≤50; “C” represents % >50.

CT26.DLL3 cells [2] = assay: Internalization of [177Lu]Lu-labeled peptide, CT26.DLL3 cells; format: cell-based; conditions: 1 h, 37° C.
Method: as §1, §2, §3, §4
Internalization: The resuspended cells in 300 μL of 1% PBSA and counted in the gamma counter as “bound fraction” were collected in 1.5 mL Eppendorf tube and pelleted. The pelleted cells were incubated with 300 μL of 50 mM Glycine pH=2.5 for 3 minutes and then pelleted discarding the supernatant. This process was repeated one more time. The pelleted cells were washed with 300 μL of cold 1% PBSA and then resuspended in 300 μl 0.3M NaOH. This was counted in the gamma counter as “internalized fraction”.
as §5

[3] = tested on: nude mice bearing SHP-77 tumors; assay: Ex vivo biodistribution of radiolabeled peptides (% IA/g) in nude mice bearing SHP-77 tumors; conditions: [177Lu]Lu labelling, 24 hours post-injection, intravenous
Method: Mice were intravenously injected (via the lateral tail vein) with a bolus dose of the radiolabeled peptides for ex vivo biodistribution studies when tumor volumes were in range of 200-400 mm^3 for xenograft mice and when age of the mice was 5-7 weeks for tumor naïve mice studies. To assess the amount of radionuclide injected into individual mice the syringe was assayed in a dose calibrator before and after injection for [^177Lu]Lu-peptide, then the injected dose was determined from the weight difference and concentration of the radionuclide solution.
Mice were euthanized at pre-determined time points and selected tissues were resected and collected into pre-weighed tubes. The tubes were then reweighed post resection, the difference giving the weight of each tissue. Radioactivity in each tissue was measured using a gamma counter. Counts were decay corrected to the time of injection and percentage of injected activity per gram (% IA/g) was calculated for each tissue based on the injected activity into each individual mouse. Injected activity was converted to counts based on the sensitivity of the gamma counter. The counts in tissue were then converted to the percentage of injected activity and this was divided by the mass of tissue to give % IA/g.

DLL3 = target: T1, DLL3; assay: SPR KD, biotinylated human DLL3 on streptavidin chip (Table 8); set-up: biotin (biotinylated); conditions: biotinylated human DLL3 on streptavidin sensor chip, 25° C., 1:1 binding model; read-out: SPR KD
Description: Biotinylated target ligand human DLL3 was immobilized on a streptavidin sensor chip. A reference surface was set up for nonspecific binding and refractive index changes. […] Sensorgram curves were fitted with 1:1 binding model, and affinity and kinetic parameters were obtained using Biacore Insight evaluation 4.0. software.

[4] = target: T2, DLL3 (target ligand immobilized on a SA …); assay: SPR, Biacore S200, target ligand on SA chip, 25 C, 1:1 fit
Method: Target ligand was immobilized on a SA sensor chip via streptavidin capture. A reference surface was set up for nonspecific binding and refractive index changes. For analysis of the kinetics of interactions, varying concentrations of peptides were injected at a flow rate of 50 μL/minute using running buffer containing 20 mM phosphate buffer with 2.7 mM KCl, 137 mM NaCl and 0.05% Surfactant P20. Sensorgram curves were fitted with 1:1 binding model, and affinity and kinetic parameters were obtained using either Biacore S200 evaluation software 1.1.1 or Biacore Insight evaluation 4.0.

Row | kidney uptake (% IA/g) [3] | Kd (DLL3) | Kd [4] | Molecule | % Binding (CT26.DLL3 cells [1]) | % Internalization (out of bound fraction) (CT26.DLL3 cells [2]) | tumor uptake (% IA/g) [3]
1 | C (“C” represents 0 < % IA/g ≤ 10 in) | < 1 nM | – | CCCC[C@@H](C(=O)N[C@H]1CSSC[C@@H](C(=O)N[C@@H](Cc2c[nH]c3ccccc23)C(=O)N2CCC[C@H]2C(N)=O)NC(=O)[C@H](CC(=O)O)NC(=O)[C@H](CCCCNC(=O)CN2CCN(CC(=O)O)CCN(CC(=O)O)CCN(CC(=O)O)CC2)NC(=O)[C@H](Cc2ccc3ccccc3c2)NC(=O)[C@H](CC(N)=O)NC(=O)[C@H](CC2CCNCC2)NC1=O)N(C)C(=O)[C@@H](NC(=O)[C@H](Cc1c[nH]c2ccccc12)NC(C)=O)[C@@H](C)O [compound 300, Ac-W-T-(NMe-Nle)-C(3)-[3-(4-piperidinyl)-Ala]-N-(2Nal)-Lys(DOTA)-D-C(3)-W-P-CONH2] (Ac-WT[NMeNle]C[Ala(piperidin-4-yl)]N[2Nal]K(DOTA)DCWP-NH2; disulfide 4-10) | B (25 <% ≤50) | B (25 <% ≤50) | A (“A” represents 0 < % IA/g ≤ 5 in tumor)
2 | C (“C” represents 0 < % IA/g ≤ 10 in) | < 1 nM | – | CC(=O)N[C@@H](Cc1c[nH]c2ccccc12)C(=O)N[C@H](C(=O)N[C@H](C(=O)N[C@H]1CSSC[C@@H](C(=O)N[C@@H](Cc2c[nH]c3ccccc23)C(=O)N2CCC[C@H]2C(N)=O)NC(=O)[C@H](CC(=O)O)NC(=O)[C@H](CCCCNC(=O)CN2CCN(CC(=O)O)CCN(CC(=O)O)CCN(CC(=O)O)CC2)NC(=O)[C@H](Cc2ccc3ccccc3c2)NC(=O)[C@H](CC(N)=O)NC(=O)[C@H](CC2CCNCC2)NC1=O)C(C)(C)C)[C@@H](C)O [compound 301, Ac-W-T-(Tbg)-C(3)-[3-(4-piperidinyl)-Ala]-N-(2Nal)-Lys(DOTA)-D-C(3)-W-P-CONH2] (Ac-WT[Tle]C[Ala(piperidin-4-yl)]N[2Nal]K(DOTA)DCWP-NH2; disulfide 4-10) | B (25 <% ≤50) | B (25 <% ≤50) | A (“A” represents 0 < % IA/g ≤ 5 in tumor)
3 | – | – | 42 nM | Ac-MWTLCDNWQTCWP-NH2 (disulfide 5-11; SMILES CSCC[C@H](NC(C)=O)C(=O)N[C@@H](Cc1c[nH]c2ccccc12)C(=O)N[C@H](C(=O)N[C@@H](CC(C)C)C(=O)N[C@H]1CSSC[C@@H](C(=O)N[C@@H](Cc2c[nH]c3ccccc23)C(=O)N2CCC[C@H]2C(N)=O)NC(=O)[C@H]([C@@H](C)O)NC(=O)[C@H](CCC(N)=O)NC(=O)[C@H](Cc2c[nH]c3ccccc23)NC(=O)[C@H](CC(N)=O)NC(=O)[C@H](CC(=O)O)NC1=O)[C@@H](C)O) [SEQ ID NO 73] | – | – | –
4 | – | – | 24 nM | Ac-MWTLCDTWDTCFP-NH2 (disulfide 5-11; SMILES CSCC[C@H](NC(C)=O)C(=O)N[C@@H](Cc1c[nH]c2ccccc12)C(=O)N[C@H](C(=O)N[C@@H](CC(C)C)C(=O)N[C@H]1CSSC[C@@H](C(=O)N[C@@H](Cc2ccccc2)C(=O)N2CCC[C@H]2C(N)=O)NC(=O)[C@H]([C@@H](C)O)NC(=O)[C@H](CC(=O)O)NC(=O)[C@H](Cc2c[nH]c3ccccc23)NC(=O)[C@H]([C@@H](C)O)NC(=O)[C@H](CC(=O)O)NC1=O)[C@@H](C)O) [SEQ ID NO 72] | – | – | –
5 | – | – | 57 nM | Ac-MWVLCEWHECWPG-NH2 (disulfide 5-10; SMILES CSCC[C@H](NC(C)=O)C(=O)N[C@@H](Cc1c[nH]c2ccccc12)C(=O)N[C@H](C(=O)N[C@@H](CC(C)C)C(=O)N[C@H]1CSSC[C@@H](C(=O)N[C@@H](Cc2c[nH]c3ccccc23)C(=O)N2CCC[C@H]2C(=O)NCC(N)=O)NC(=O)[C@H](CCC(=O)O)NC(=O)[C@H](Cc2c[nH]cn2)NC(=O)[C@H](Cc2c[nH]c3ccccc23)NC(=O)[C@H](CCC(=O)O)NC1=O)C(C)C) [SEQ ID NO 75] | – | – | –
6 | – | – | 110 nM | Ac-MWQLCEWNNCWPV-NH2 (disulfide 5-10; SMILES CSCC[C@H](NC(C)=O)C(=O)N[C@@H](Cc1c[nH]c2ccccc12)C(=O)N[C@@H](CCC(N)=O)C(=O)N[C@@H](CC(C)C)C(=O)N[C@H]1CSSC[C@@H](C(=O)N[C@@H](Cc2c[nH]c3ccccc23)C(=O)N2CCC[C@H]2C(=O)N[C@H](C(N)=O)C(C)C)NC(=O)[C@H](CC(N)=O)NC(=O)[C@H](CC(N)=O)NC(=O)[C@H](Cc2c[nH]c3ccccc23)NC(=O)[C@H](CCC(=O)O)NC1=O) [SEQ ID NO 74] | – | – | –

— US20250049970A1, “DLL3 TARGETING PEPTIDES AND CONSTRUCTS THEREOF” (MARIANA ONCOLOGY INC., priority 2023, published 2025)
